From ChEMBL document CHEMBL4428075, “New antiproliferative 7-(4-(N-substituted carbamoylmethyl)piperazin-1-yl) derivatives of ciprofloxacin induce cell cycle arrest at G2/M phase” (Bioorg Med Chem, 2016)

Assays:
HOP-62 = assay: Antiproliferative activity against human HOP62 cells at 10^-5 M after 48 hrs by SRB assay; format: functional; settings: HOP-62, 48 h, read-out: GI
NCI/ADR-RES = assay: Antiproliferative activity against human NCI-ADR-RES cells at 10^-5 M after 48 hrs by SRB assay; format: functional; settings: read-out: GI
HCT-15 = assay: Antiproliferative activity against human HCT15 cells at 10^-5 M after 48 hrs by SRB assay; format: functional; settings: HCT-15, 48 h, read-out: GI
UACC-62 = assay: Antiproliferative activity against human UACC62 cells at 10^-5 M after 48 hrs by SRB assay; format: functional; settings: UACC-62, 48 h, read-out: GI
HOP-92 = assay: Antiproliferative activity against human HOP92 cells at 10^-5 M after 48 hrs by SRB assay; format: functional; settings: HOP-92, 48 h, read-out: GI
U-251 = assay: Antiproliferative activity against human U251 cells at 10^-5 M after 48 hrs by SRB assay; format: functional; settings: U-251, 48 h, read-out: GI
Hs-578T = assay: Antiproliferative activity against human Hs 578T cells at 10^-5 M after 48 hrs by SRB assay; format: functional; settings: read-out: GI
MOLT-4 = assay: Antiproliferative activity against human MOLT4 cells at 10^-5 M after 48 hrs by SRB assay; format: functional; settings: MOLT-4, 48 h, read-out: GI
ACHN = assay: Antiproliferative activity against human ACHN cells at 10^-5 M after 48 hrs by SRB assay; format: functional; settings: read-out: GI
A498 = assay: Antiproliferative activity against human A498 cells at 10^-5 M after 48 hrs by SRB assay; format: functional; settings: A498, 48 h, read-out: GI
SN12C = assay: Antiproliferative activity against human SN12C cells at 10^-5 M after 48 hrs by SRB assay; format: functional; settings: read-out: GI
T47D = assay: Antiproliferative activity against human T47D cells at 10^-5 M after 48 hrs by SRB assay; format: functional; settings: read-out: GI
NCI-H460 = assay: Antiproliferative activity against human NCI-H460 cells at 10^-5 M after 48 hrs by SRB assay; format: functional; settings: NCI-H460, 48 h, read-out: GI
CCRF-CEM = assay: Antiproliferative activity against human CCRF-CEM cells at 10^-5 M after 48 hrs by SRB assay; format: functional; settings: read-out: GI
LOX IMVI = assay: Antiproliferative activity against human LOXIMVI cells at 10^-5 M after 48 hrs by SRB assay; format: functional; settings: read-out: GI
NCI-H23 = assay: Antiproliferative activity against human NCI-H23 cells at 10^-5 M after 48 hrs by SRB assay; format: functional; settings: NCI-H23, 48 h, read-out: GI
SK-MEL-2 = assay: Antiproliferative activity against human SK-MEL-2 cells at 10^-5 M after 48 hrs by SRB assay; format: functional; settings: SK-MEL-2, 48 h, read-out: GI
MCF7 = assay: Antiproliferative activity against human MCF7 cells at 10^-5 M after 48 hrs by SRB assay; format: functional; settings: MCF7, 48 h, read-out: GI
HL-60(TB) = assay: Antiproliferative activity against human HL-60(TB) cells at 10^-5 M after 48 hrs by SRB assay; format: functional; settings: HL-60, 48 h, read-out: GI
SF-268 = assay: Antiproliferative activity against human SF268 cells at 10^-5 M after 48 hrs by SRB assay; format: functional; settings: SF-268, 48 h, read-out: GI
SNB-75 = assay: Antiproliferative activity against human SNB75 cells at 10^-5 M after 48 hrs by SRB assay; format: functional; settings: SNB-75, 48 h, read-out: GI
IGROV-1 = assay: Antiproliferative activity against human IGROV1 cells at 10^-5 M after 48 hrs by SRB assay; format: functional; settings: IGROV-1, 48 h, read-out: GI
SW-620 = assay: Antiproliferative activity against human SW620 cells at 10^-5 M after 48 hrs by SRB assay; format: functional; settings: SW-620, 48 h, read-out: GI
MDA-MB-435 = assay: Antiproliferative activity against human MDA-MB-435 cells at 10^-5 M after 48 hrs by SRB assay; format: functional; settings: MDA-MB-435, 48 h, read-out: GI
SF-539 = assay: Antiproliferative activity against human SF539 cells at 10^-5 M after 48 hrs by SRB assay; format: functional; settings: SF-539, 48 h, read-out: GI
CAKI-1 = assay: Antiproliferative activity against human Caki1 cells at 10^-5 M after 48 hrs by SRB assay; format: functional; settings: CAKI-1, 48 h, read-out: GI
A549 = assay: Antiproliferative activity against human A549 cells after 24 hrs by BrdU incorporation assay; format: functional, cell-based; settings: A549, 24 h
RPMI-8226 = assay: Antiproliferative activity against human RPMI8226 cells at 10^-5 M after 48 hrs by SRB assay; format: functional; settings: RPMI-8226, 48 h, read-out: GI
SK-OV-3 = assay: Antiproliferative activity against human SKOV3 cells at 10^-5 M after 48 hrs by SRB assay; format: functional; settings: SK-OV-3, 48 h, read-out: GI
UO-31 = assay: Antiproliferative activity against human UO31 cells at 10^-5 M after 48 hrs by SRB assay; format: functional; settings: UO-31, 48 h, read-out: GI
M14 = assay: Antiproliferative activity against human M14 cells at 10^-5 M after 48 hrs by SRB assay; format: functional; settings: M14, 48 h, read-out: GI
PC-3 = assay: Antiproliferative activity against human PC3 cells at 10^-5 M after 48 hrs by SRB assay; format: functional; settings: PC-3, 48 h, read-out: GI
SK-MEL-5 = assay: Antiproliferative activity against human SK-MEL-5 cells at 10^-5 M after 48 hrs by SRB assay; format: functional; settings: SK-MEL-5, 48 h, read-out: GI
DU-145 = assay: Antiproliferative activity against human DU145 cells at 10^-5 M after 48 hrs by SRB assay; format: functional; settings: DU-145, 48 h, read-out: GI
EKVX = assay: Antiproliferative activity against human EKVX cells at 10^-5 M after 48 hrs by SRB assay; format: functional; settings: read-out: GI
UACC-257 = assay: Antiproliferative activity against human UACC257 cells at 10^-5 M after 48 hrs by SRB assay; format: functional; settings: UACC-257, 48 h, read-out: GI
NCI-H226 = assay: Antiproliferative activity against human NCI-H226 cells at 10^-5 M after 48 hrs by SRB assay; format: functional; settings: NCI-H226, 48 h, read-out: GI
786-0 = assay: Antiproliferative activity against human 786-0 cells at 10^-5 M after 48 hrs by SRB assay; format: functional; settings: 786-0, 48 h, read-out: GI
OVCAR-3 = assay: Antiproliferative activity against human OVCAR3 cells at 10^-5 M after 48 hrs by SRB assay; format: functional; settings: OVCAR-3, 48 h, read-out: GI
HCT-116 = assay: Antiproliferative activity against human HCT116 cells at 10^-5 M after 48 hrs by SRB assay; format: functional; settings: HCT-116, 48 h, read-out: GI

SMILES | inhibition of growth at 10 µM (HOP-62) [%] | inhibition of growth at 10 µM (NCI/ADR-RES) [%] | inhibition of growth at 10 µM (HCT-15) [%] | inhibition of growth at 10 µM (UACC-62) [%] | inhibition of growth at 10 µM (HOP-92) [%] | inhibition of growth at 10 µM (U-251) [%] | inhibition of growth at 10 µM (Hs-578T) [%] | inhibition of growth at 10 µM (MOLT-4) [%] | inhibition of growth at 10 µM (ACHN) [%] | inhibition of growth at 10 µM (A498) [%] | inhibition of growth at 10 µM (SN12C) [%] | inhibition of growth at 10 µM (T47D) [%] | inhibition of growth at 10 µM (NCI-H460) [%] | inhibition of growth at 10 µM (CCRF-CEM) [%] | inhibition of growth at 10 µM (LOX IMVI) [%] | inhibition of growth at 10 µM (NCI-H23) [%] | inhibition of growth at 10 µM (SK-MEL-2) [%] | inhibition of growth at 10 µM (MCF7) [%] | inhibition of growth at 10 µM (HL-60(TB)) [%] | inhibition of growth at 10 µM (SF-268) [%] | also measured
COc1cc(NC(=O)CN2CCN(c3cc4c(cc3F)c(=O)c(C(=O)O)cn4C3CC3)CC2)cc(OC)c1OC | 8.5 | 0 | 0 | 0.79 | 18.7 | 0 | 4.61 | 0 | 0 | 0 | 2.78 | 9.38 | 0 | 23.2 | 16.1 | 0 | 7.36 | 0 | 8.4 | 0 | inhibition of growth at 10 µM (SNB-75): 0%; inhibition of growth at 10 µM (IGROV-1): 0%; inhibition of growth at 10 µM (SW-620): 0%; inhibition of growth at 10 µM (MDA-MB-435): 0%; inhibition of growth at 10 µM (SF-539): 0%; inhibition of growth at 10 µM (CAKI-1): 0%; IC50 (A549): > 100 µM; inhibition of growth at 10 µM (RPMI-8226): 2.8%; inhibition of growth at 10 µM (SK-OV-3): 5.77%; inhibition of growth at 10 µM (UO-31): 0%; inhibition of growth at 10 µM (M14): 0%; inhibition of growth at 10 µM (PC-3): 14.5%; inhibition of growth at 10 µM (SK-MEL-5): 0%; inhibition of growth at 10 µM (DU-145): 0%; inhibition of growth at 10 µM (EKVX): 0%; inhibition of growth at 10 µM (UACC-257): 3.24%; inhibition of growth at 10 µM (NCI-H226): 0%; inhibition of growth at 10 µM (786-0): 15.2%; inhibition of growth at 10 µM (OVCAR-3): 6.06%; inhibition of growth at 10 µM (HCT-116): 0%
O=C(CN1CCN(c2cc3c(cc2F)c(=O)c(C(=O)O)cn3C2CC2)CC1)Nc1ccc(Cl)cc1 | 28.3 | 0 | 17 | 36.4 | 21.1 | 55.8 | 12.3 | 3.53 | 46.8 | 31.4 | 9.89 | 40.9 | 12.1 | 23.6 | 38.9 | 5.51 | 5.16 | 5.73 | 10.5 | 8.82 | inhibition of growth at 10 µM (SNB-75): 20.3%; inhibition of growth at 10 µM (IGROV-1): 6.22%; inhibition of growth at 10 µM (SW-620): 0%; inhibition of growth at 10 µM (MDA-MB-435): 11.7%; inhibition of growth at 10 µM (SF-539): 13.1%; inhibition of growth at 10 µM (CAKI-1): 32.8%; IC50 (A549): 14.8 µM; inhibition of growth at 10 µM (RPMI-8226): 27.8%; inhibition of growth at 10 µM (SK-OV-3): 36.6%; inhibition of growth at 10 µM (UO-31): 92.8%; inhibition of growth at 10 µM (M14): 18.2%; inhibition of growth at 10 µM (PC-3): 19.9%; inhibition of growth at 10 µM (SK-MEL-5): 28.9%; inhibition of growth at 10 µM (DU-145): 0.9%; inhibition of growth at 10 µM (EKVX): 6.62%; inhibition of growth at 10 µM (UACC-257): 43%; inhibition of growth at 10 µM (NCI-H226): 19.9%; inhibition of growth at 10 µM (786-0): 29.9%; inhibition of growth at 10 µM (OVCAR-3): 7.56%; inhibition of growth at 10 µM (HCT-116): 26.9%
COc1ccc(NC(=O)CN2CCN(c3cc4c(cc3F)c(=O)c(C(=O)O)cn4C3CC3)CC2)cc1 | 13 | 0 | 0 | 10.5 | 5.92 | 5.8 | 5.32 | 0 | 0 | 37.6 | 4 | 24.5 | 6.32 | 0 | 39 | 7.04 | 0 | 0 | 0 | 6.72 | inhibition of growth at 10 µM (SNB-75): 12%; inhibition of growth at 10 µM (IGROV-1): 0%; inhibition of growth at 10 µM (SW-620): 0%; inhibition of growth at 10 µM (MDA-MB-435): 1.51%; inhibition of growth at 10 µM (SF-539): 5.31%; inhibition of growth at 10 µM (CAKI-1): 0%; IC50 (A549): 24.8 µM; inhibition of growth at 10 µM (RPMI-8226): 3.36%; inhibition of growth at 10 µM (SK-OV-3): 17%; inhibition of growth at 10 µM (UO-31): 17.8%; inhibition of growth at 10 µM (M14): 8.75%; inhibition of growth at 10 µM (PC-3): 11.6%; inhibition of growth at 10 µM (SK-MEL-5): 3.22%; inhibition of growth at 10 µM (DU-145): 0%; inhibition of growth at 10 µM (EKVX): 0%; inhibition of growth at 10 µM (UACC-257): 16.9%; inhibition of growth at 10 µM (NCI-H226): 16.8%; inhibition of growth at 10 µM (786-0): 20.9%; inhibition of growth at 10 µM (OVCAR-3): 0%; inhibition of growth at 10 µM (HCT-116): 9.38%
